# Measured values taken from PubChem BioAssay AID248 (DTP/NCI, 2004).
# “And” between values parts separate entries of the source, which are not always exact repeats. Equal entries are not always repeated. Toxic doses and inconclusive results are not listed.
# System: L1210 leukemia ip in BDF1 mice, survival T/C
# Test: NCI In Vivo Anticancer Drug Screen. Data for tumor model L1210 Leukemia (intraperitoneal) in B6D2F1 (BDF1) mice
# Settings: endpoint: mean survival time, higher = longer survival
# Procedure, shortened: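 Ratio derived from survival: compound-dosed mice over vehicle-dosed mice, all bearing a transplantable tumor.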
# [1] = dose: 100.0 mg/kg/injection, schedule: Q01DX009 (ip), vehicle: Klucel (hydroxypropylcellulose) (HPC)
# [2] = dose: 200.0 mg/kg/injection, schedule: Q01DX009 (ip), vehicle: Klucel (hydroxypropylcellulose) (HPC)
# [3] = dose: 100.0 mg/kg/injection, schedule: Q01DX009 (ip), vehicle: saline with Tween-80
# [4] = dose: 200.0 mg/kg/injection, schedule: Q01DX009 (ip), vehicle: saline with Tween-80
# [5] = dose: 50.0 mg/kg/injection, schedule: Q01DX009 (ip), vehicle: saline with Tween-80
# [6] = dose: 100.0 mg/kg/injection, schedule: Q04DX003 (ip), vehicle: Klucel (hydroxypropylcellulose) (HPC)
# [7] = dose: 200.0 mg/kg/injection, schedule: Q04DX003 (ip), vehicle: Klucel (hydroxypropylcellulose) (HPC)
# [8] = dose: 400.0 mg/kg/injection, schedule: Q01DX009 (ip), vehicle: Klucel (hydroxypropylcellulose) (HPC)
# [9] = dose: 400.0 mg/kg/injection, schedule: Q04DX003 (ip), vehicle: Klucel (hydroxypropylcellulose) (HPC)
# [10] = dose: 100.0 mg/kg/injection, schedule: Q01DX001 (ip), vehicle: Klucel (hydroxypropylcellulose) (HPC)
# [11] = dose: 200.0 mg/kg/injection, schedule: Q01DX001 (ip), vehicle: Klucel (hydroxypropylcellulose) (HPC)
smiles,measurement,setting,value
N#CC1CN(c2ccccc2)CC1=O (centres undefined),T/C,[1],97 % of control
same,T/C,[2],96 % of control
O=S(=O)(Cl)c1ccc(F)cc1,T/C,[3],98 % of control
same,T/C,[4],96 % of control
same,T/C,"dose: 400.0 mg/kg/injection, schedule: Q01DX009 (ip), vehicle: saline with Tween-80",90 % of control
C=CCn1c2c(c3ccccc31)CCC2,T/C,[5],86 % of control
same,T/C,[3],93 % of control
Cc1ccc(S(=O)(=O)N/N=C/N(C)C)cc1,T/C,[1],91 % of control
same,T/C,[6],102 % of control
same,T/C,[2],98 % of control
same,T/C,[7],103 % of control
same,T/C,[8],96 % of control
same,T/C,[9],97 % of control
C=C(C)Cc1cnc(SC)[nH]c1=O,T/C,"dose: 50.0 mg/kg/injection, schedule: Q01DX001 (ip), vehicle: Klucel (hydroxypropylcellulose) (HPC)",98 % of control
same,T/C,[10],100 % of control
same,T/C,[11],98 % of control
N/C(N=Nc1ccccc1)=N\[N+](=O)[O-],T/C,[6],100 % of control
same,T/C,[7],105 % of control
same,T/C,[9],86 % of control
CCCCCCCCCCCC(=O)N/N=C/c1ccccc1OC,T/C,"dose: 25.0 mg/kg/injection, schedule: Q01DX009 (ip), vehicle: Klucel (hydroxypropylcellulose) (HPC)",90 % of control
same,T/C,"dose: 50.0 mg/kg/injection, schedule: Q01DX009 (ip), vehicle: Klucel (hydroxypropylcellulose) (HPC)",94 % of control
same,T/C,[1],87 % of control and 90 % of control
Nc1nc(N)c2cc(CNc3ccc(C(=O)NC(CC(=O)O)C(=O)O)c(Cl)c3)ccc2n1 (centres undefined),T/C,"dose: 1.8 mg/kg/injection, schedule: Q01DX009 (ip), vehicle: saline with Tween-80",152 % of control
same,T/C,"dose: 1.8 mg/kg/injection, schedule: Q01DX009 (ip), vehicle: saline",157 % of control
same,T/C,"dose: 2.7 mg/kg/injection, schedule: Q01DX009 (ip), vehicle: saline with Tween-80",178 % of control
same,T/C,"dose: 2.7 mg/kg/injection, schedule: Q01DX009 (ip), vehicle: saline",162 % of control and 180 % of control
same,T/C,"dose: 9.0 mg/kg/injection, schedule: Q01DX009 (ip), vehicle: saline",92 % of control
same,T/C,"dose: 30.0 micrograms/kg/injection, schedule: Q01DX009 (ip), vehicle: saline with Tween-80",95 % of control
same,T/C,"dose: 44.0 micrograms/kg/injection, schedule: Q01DX009 (ip), vehicle: saline with Tween-80",107 % of control
same,T/C,"dose: 67.0 micrograms/kg/injection, schedule: Q01DX009 (ip), vehicle: saline with Tween-80",95 % of control
same,T/C,"dose: 100.0 micrograms/kg/injection, schedule: Q01DX009 (ip), vehicle: saline with Tween-80",95 % of control
O=C(O)C1Cc2nc[nH]c2CN1CO (centres undefined),T/C,"dose: 12.5 mg/kg/injection, schedule: Q01DX009 (ip), vehicle: saline with Tween-80",122 % of control
same,T/C,"dose: 25.0 mg/kg/injection, schedule: Q01DX009 (ip), vehicle: saline with Tween-80",113 % of control
same,T/C,[3],263 % of control
O=C1N(CCCl)CCN1c1ccccc1,T/C,[10],93 % of control
same,T/C,[1],104 % of control
same,T/C,[11],96 % of control
same,T/C,[2],106 % of control
same,T/C,"dose: 400.0 mg/kg/injection, schedule: Q01DX001 (ip), vehicle: Klucel (hydroxypropylcellulose) (HPC)",95 % of control
same,T/C,[8],106 % of control
COc1ccc(Cl)cc1NC(=O)COc1cc(Cl)c(Cl)cc1Cl,T/C,[5],101 % of control
same,T/C,[3],96 % of control
same,T/C,[4],104 % of control
O=C(c1ccccc1)c1c2ccccc2c(C(=O)c2ccccc2)c2ccccc12,T/C,[1],104 % of control
same,T/C,[6],103 % of control
same,T/C,[2],97 % of control
same,T/C,[7],100 % of control
same,T/C,[8],97 % of control
same,T/C,[9],99 % of control
